This passage reports IC50 results from patent publication US9688630B2, “3,3′-disubstituted indolines as inhibitors of cholesterol ester transfer protein” (Merck Sharp & Dohme Corp., priority 2013, dated 2017).

pIC50: −log10 of the molar value.

One test addresses T1, recombinant CETP (Homo sapiens, UniProt P11597).
T1 sequence (P11597 18-493): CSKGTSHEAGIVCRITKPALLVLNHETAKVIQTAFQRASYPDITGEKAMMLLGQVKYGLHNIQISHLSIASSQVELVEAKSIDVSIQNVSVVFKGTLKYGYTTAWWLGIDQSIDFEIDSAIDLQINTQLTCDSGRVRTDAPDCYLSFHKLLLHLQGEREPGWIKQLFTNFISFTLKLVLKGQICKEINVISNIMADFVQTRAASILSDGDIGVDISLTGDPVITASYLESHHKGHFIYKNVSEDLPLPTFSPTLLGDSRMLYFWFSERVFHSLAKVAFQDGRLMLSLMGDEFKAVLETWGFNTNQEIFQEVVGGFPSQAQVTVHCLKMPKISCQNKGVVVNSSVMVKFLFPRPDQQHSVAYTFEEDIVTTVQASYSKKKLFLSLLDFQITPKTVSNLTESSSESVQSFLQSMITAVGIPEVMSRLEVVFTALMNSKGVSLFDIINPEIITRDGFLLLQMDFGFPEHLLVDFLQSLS
Briefly: RTA assay using recombinant CETP (2% RTA). The conditions noted are these: 2% human serum. The class given is biochemical. As to the method: (§1) In Vitro Radioactive Assays of CETP-Catalyzed CE and TG Transfer (RTA Assay)
(§2) Reagents and sources are: [3H] cholesteryl oleate (GE #TRK.886), [3H] Triolein (Perkin-Elmer NET-431), Butylated hydroxyl toluene (Aldrich, #D4740-4), DOPC (Sigma, #P6354), Sodium Bromide (Fisher scientific #S255-500), PEG 8000 (Fisher, #BP233-1), and human HDL (Intracel Corp #RP-036).
(§3) An in vitro assay for determining IC50's to identify compounds that inhibit CETP transfer activity is performed based on a modification of a published method (Morton and Zilversmit, (1981) A plasma inhibitor of triglyceride and cholesteryl ester transfer activities, J. Biol. Chem. 256(23), 11992-11995). The ability of inhibitors to alter CETP activity is performed using two different assays: one using recombinant CETP and one using an endogenous plasma source of CETP. Both assays measure the transfer of [3H] cholesteryl oleate or [3H] triolein from exogenous LDL to HDL.
(§4) Radiolabeled donor particles are generated by first combining 100 μl of 200 μM butylated hydroxyl toluene in CHCl3, 216 μL of 21.57 mM DOPC in EtOH, and either 500 μCi [3H]-triolein (Perkin Elmer #NET-431) or 500 μCi [3H]-cholesteryl oleate (GE #TRK886) in a glass tube. Reagents are mixed, dried under nitrogen, and then resuspended in 2 mL of 50 mM Tris, 27 μM EDTA at pH 7.4. After a brief vortex, the solution is sonicated until clear and mixed with 20 mL of fresh human serum. The mixture is incubated overnight at 37° C. The [3H] labeled LDL substrate is separated at 1.063 g/ml density by sequential ultracentrifugal flotation in NaBr according to the method of Havel, Eder, et al., 1955, and Chapman, Goldstein, et al., 1981. Once isolated the particles are dialyzed 3× in CETP buffer (50 mM Tris, pH 7.4, 100 mM NaCl, 1 mM EDTA). Human HDL is purchased from Intracel and used as the acceptor particles.
(§5) Transfer assays are performed in a 96-well v-bottom polypropylene plate. For the RTA using recombinant CETP (2% RTA), an assay cocktail is prepared with the final concentrations 128 μg/mL HDL, 20 nM rCETP, 2% human serum, and 1×CETP buffer. 1 μL of each test compound diluted in DMSO is added to 47 μL of assay cocktail per well and incubated at 37° C. for 1 hour. To initiate the transfer reaction, 2 μL radiolabeled LDL is added. After an additional 60 min of incubation at 37° C., the transfer action is terminated by precipitation of LDL with an equal volume of 20% W/V PEG 8000. The plates are centrifuged at 2000 rpm for 30 minutes at 4° C. A 40 μL aliquot of the HDL-containing supernatant is transferred to a Packard Optiplate™ with 200 μL of MicroScint™ 20. After mixing, plates are counted by liquid scintillation. Counts present in the supernatant for blanks (wells containing only HDL acceptor, CETP buffer and DMSO) are subtracted from those containing test compounds and used to correct for non-specific transfer.
(§6) Comparison of the counts of samples with inhibitors to an uninhibited (DMSO only) positive control yield a percent inhibition. A plot of percent inhibition vs. log of inhibitor concentration, fit to a Sigmoidal 4 parameter equation is used to calculate IC50.

Test [1] has as its target T2, endogenous CETP from human serum (Homo sapiens, UniProt P11597).
T2 construct: yielding a concentration of approximately 15 nM endogenous CETP in the assay; from tissue; host or cells: human serum
T2 sequence (P11597 18-493): T1 sequence (P11597 18-493)
The test is described as follows: RTA assay using endogenous CETP from serum (95% RTA). The class given is biochemical. The following applies: 95% human serum. As to the method: as §1, §2, §3, §4, §5
For the transfer assay using endogenous CETP from serum (95% RTA), the same procedure is used except that human serum is added such that a final concentration of serum of 95% of the total assay volume is achieved, yielding a concentration of approximately 15 nM endogenous CETP in the assay. This is then combined with HDL and CETP buffer and the reaction proceeds as above and is terminated as described.
as §6

On to `CCOc1cc(C2(Cc3cccc(OC)c3)CN(C[C@@H](O)C(F)(F)F)c3ccccc32)ccn1` (stereo partly shown) [Example 23], for which the pIC50 on recombinant CETP is 6.60; in test [1], 6.17.

Consider `O[C@H](CN1CC(Cc2cccc(OC(F)(F)F)c2)(c2ccnc(N3CCOCC3)c2)c2ccccc21)C(F)(F)F` (stereo partly shown) [Example 24], for which the pIC50 on recombinant CETP was 6.61; in test [1], 5.51.

Regarding `Cc1cc(C(=O)O)ccc1-c1cccc(C2(Cc3cccc(OC(F)(F)F)c3)CN(C[C@@H](O)C(F)(F)F)c3ccccc32)c1` (stereo partly shown) [Example 27], the results for the pIC50 (at recombinant CETP; in test [1]) were 6.42 and 5.39, respectively.

Turning to `CC1(O)CN(c2cccc(C3(Cc4cccc(OC(F)(F)F)c4)CN(C[C@@H](O)C(F)(F)F)c4ccccc43)c2)C1` (stereo partly shown) [Example 33], the results for the pIC50 (on recombinant CETP; in test [1]) were 5.91 and 5.36, respectively.

For the molecule `O[C@H](CN1CC(Cc2cccc(OC(F)(F)F)c2)(c2cccc(N3CC(F)C3)c2)c2ccccc21)C(F)(F)F` (stereo partly shown) [Example 34], the pIC50 on recombinant CETP was 7.23; in test [1], 6.50.

Consider `O[C@H](CN1CC(Cc2cccc(OC(F)(F)F)c2)(c2cccc(N3CCC(F)(F)C3)c2)c2ccccc21)C(F)(F)F` (stereo partly shown) [Example 35], for which the results for the pIC50 (on recombinant CETP; in test [1]) were 7.01 and 6.27, respectively.

In the case of `CO[C@@H]1CCN(c2cccc(C3(Cc4cccc(OC(F)(F)F)c4)CN(C[C@@H](O)C(F)(F)F)c4ccccc43)c2)C1` (stereo partly shown) [Example 36], the pIC50 is 6.94 on recombinant CETP and 6.11 in test [1].

For `CO[C@H]1CCN(c2cccc(C3(Cc4cccc(OC(F)(F)F)c4)CN(C[C@@H](O)C(F)(F)F)c4ccccc43)c2)C1` (stereo partly shown) [Example 37], the figures for the pIC50 (at recombinant CETP; in test [1]) were 7.11 and 6.40, respectively.

In the case of `C[C@H]1CN(c2cccc(C3(Cc4cccc(OC(F)(F)F)c4)CN(C[C@@H](O)C(F)(F)F)c4ccccc43)c2)CCO1` (stereo partly shown) [Example 38], the pIC50 on recombinant CETP is 6.93; in test [1], 6.17.

Consider `O[C@H](CN1CC(Cc2cccc(OC(F)(F)F)c2)(c2cccc(N3CCC(F)(F)CC3)c2)c2ccccc21)C(F)(F)F` (stereo partly shown) [Example 39], for which the results for the pIC50 (on recombinant CETP; in test [1]) were 6.79 and 5.97, respectively.

As to `O[C@H](CN1CC(Cc2cccc(OC(F)(F)F)c2)(c2cccc(N3CCCC(F)(F)C3)c2)c2ccccc21)C(F)(F)F` (stereo partly shown) [Example 40], the pIC50 is 6.92 at recombinant CETP and 6.10 in test [1].

Regarding `O[C@H](CN1CC(Cc2cccc(OC(F)(F)F)c2)(c2cccc(N3CC[C@H](F)C3)c2)c2ccccc21)C(F)(F)F` (stereo partly shown) [Example 41], the pIC50 was 7.14 at recombinant CETP and 6.30 in test [1].

As for `O[C@H](CN1CC(Cc2cccc(OC(F)(F)F)c2)(c2cccc(N3CC[C@@H](F)C3)c2)c2ccccc21)C(F)(F)F` (stereo partly shown) [Example 42], the pIC50 at recombinant CETP is 7.40; in test [1], 6.12.

As for `C[C@@H]1CN(c2cccc(C3(Cc4cccc(OC(F)(F)F)c4)CN(C[C@@H](O)C(F)(F)F)c4ccccc43)c2)CCO1` (stereo partly shown) [Example 43], the pIC50 on recombinant CETP is 7.01; in test [1], 6.03.

On to `OC1CCN(c2cccc(C3(Cc4cccc(OC(F)(F)F)c4)CN(C[C@@H](O)C(F)(F)F)c4ccccc43)c2)C1` (stereo partly shown) [Example 44], for which the figures for the pIC50 (at recombinant CETP; in test [1]) were 6.31 and 5.69, respectively.

`N#Cc1cccc(CC2(c3cccc(OC(F)(F)F)c3)CN(C[C@@H](O)C(F)(F)F)c3ccccc32)c1` (stereo partly drawn) [Example 45, 3-((1-((R)-3,3,3-trifluoro-2-hydroxypropyl)-3-(3-(trifluoromethoxy)phenyl)indolin-3-yl)methyl)benzonitrile]: the pIC50 at recombinant CETP was 6.77; in test [1] it was 6.04.

With `CS(=O)(=O)c1cccc(CC2(c3cccc(OC(F)(F)F)c3)CN(C[C@@H](O)C(F)(F)F)c3ccccc32)c1` (stereo partly drawn) [Example 46, (2R)-1,1,1-trifluoro-3-(3-(3-(methylsulfonyl)benzyl)-3-(3-(trifluoromethoxy)phenyl)indolin-1-yl)propan-2-ol], the values for the pIC50 (at recombinant CETP; in test [1]) were 6.58 and 5.05, respectively.
